Data from ChEMBL document CHEMBL1130636, “PDE4 inhibitors: new xanthine analogues” (Bioorg Med Chem Lett, 1998).
Calls of active or inactive are those of the source. The rule behind the calls is not given here.

What was measured:
Phosphodiesterase 4 [1] = target: T1, Phosphodiesterase 4 (Homo sapiens, UniProt P27815+Q08499+Q07343+Q08493); experiment: Inhibition of PDE4; format: protein assay
Phosphodiesterase 4 [2] = target: T1, Phosphodiesterase 4; experiment: Inhibition of rolipram binding; format: protein assay
Phosphodiesterase 4 [3] = target: T1, Phosphodiesterase 4; experiment: Relative inhibition of PDE4 activity and rolipram binding to PDE4; format: protein assay
Cavia porcellus [4] = experiment: Inhibition of eosinophil recruitment in guinea pig lung asthma model at 10 mg/kg; format: functional
Phosphodiesterase 4 [5] = target: T1, Phosphodiesterase 4; experiment: Inhibition of rolipram binding to PDE4; format: protein assay
Mustela putorius furo = experiment: Emetic effect in ferrets on oral administration at 10 mg/kg (No effect); format: functional, organism-based; parameters: dose 10 mg/kg
Cavia porcellus [6] = experiment: Inhibition of eosinophil recruitment in guinea pig lung asthma model at 10 mg/kg oral dose; format: functional
Cavia porcellus [7] = experiment: Inhibition of eosinophil recruitment in guinea pig lung asthma model at 30 mg/kg oral dose; format: functional

SMILES	IC50 (Phosphodiesterase 4 [1])	IC50 (Phosphodiesterase 4 [2])	Ratio (Phosphodiesterase 4 [3])	also measured
Nc1cccc(-n2c(=O)n(Cc3ccccc3)c(=O)c3[nH]cnc32)c1	11 µM	0.32 µM	34	–
C[S+]([O-])c1cccc(-n2c(=O)n(Cc3ccccc3)c(=O)c3[nH]cnc32)c1 (centres undefined)	56 µM	1.6 µM	35	–
COC(=O)c1cccc(-n2c(=O)n(Cc3ccccc3)c(=O)c3[nH]cnc32)c1	4.08 µM	0.009 µM	453	–
COc1ccc(C2CNC(=O)C2)cc1OC1CCCC1 (centres undefined) [ROLIPRAM]	–	–	–	inhibition in vivo at 10 mg/kg (Cavia porcellus [4]): 48%
C[S+]([O-])c1ccccc1-n1c(=O)n(Cc2ccccc2)c(=O)c2[nH]cnc21 (centres undefined)	100 µM	–	–	–
O=c1c2[nH]cnc2n(-c2cccc(Cl)c2)c(=O)n1Cc1ccccc1	6.55 µM	–	156	IC50 (Phosphodiesterase 4 [5]): 0.042 µM
Cc1ccccc1-n1c(=O)n(Cc2cccs2)c(=O)c2[nH]cnc21	4.2 µM	1.02 µM	4.1	Activity (Mustela putorius furo): inactive; inhibition in vivo at 10 mg/kg (Cavia porcellus [6]): 56%; inhibition in vivo at 30 mg/kg (Cavia porcellus [7]): 70%
Cc1ccccc1-n1c(=O)n(Cc2ccco2)c(=O)c2[nH]cnc21	11.95 µM	1.1 µM	10.9	–
CSc1ccccc1-n1c(=O)n(Cc2ccccc2)c(=O)c2[nH]cnc21	20 µM	–	–	–
COc1cccc(-n2c(=O)n(Cc3ccccc3)c(=O)c3[nH]cnc32)c1	6.01 µM	0.017 µM	353	–
Cc1ccccc1-n1c(=O)n(Cc2ccccc2)c(=O)c2[nH]cnc21	7.97 µM	0.67 µM	11.9	–
O=c1c2[nH]cnc2n(-c2ccccc2)c(=O)n1Cc1ccccc1	4.8 µM	0.08 µM	60	–
O=c1c2[nH]cnc2n(-c2ccccc2C(F)(F)F)c(=O)n1Cc1ccccc1	20 µM	–	–	–
O=C(O)c1cccc(-n2c(=O)n(Cc3ccccc3)c(=O)c3[nH]cnc32)c1	110 µM	–	–	–
CC(C)(C)c1ccccc1-n1c(=O)n(Cc2ccccc2)c(=O)c2[nH]cnc21	> 20 µM	–	–	–
O=c1c2[nH]cnc2n(-c2ccccc2F)c(=O)n1Cc1ccccc1	2.4 µM	0.22 µM	10.9	–
